Measurements reported in patent US7629371B2, “Cosmetic use of a composition containing at least one oxazoline, serving as an active substance, as a slimming product and/or for preventing and/or treating cellulite” (Laboratoires Expanscience, priority 2003, dated 2009).

Key:
[1] = system: normal human adipocytes; assay: Evaluation of lipid synthesis in adipocytes in suspension (Example 6): incorporation of radiolabelled acetate into lipids; type: cell-based; conditions: for decrease of the incorporation of acetate, % of the control: FIG. 1
Procedure: A solution of OX100, diluted to a concentration of 10^−2 M in DMSO, was tested.
Normal human adipocytes were isolated from abdominal biopsies (plastic surgery). Immediately after they have been received, the samples are incubated for 30 minutes at 37° C. in the presence of collagenase (supplied by the company Sigma). The adipocyte suspension is subsequently rinsed and diluted three times in the culture medium. The culture medium consists of: • 1.87 mg/ml bicarbonate (supplied by the company Life Technologies), • 25 IU/ml/25 μg/ml of penicillin/streptomycin (supplied by the company Life Technologies), • 2 mM of glutamine (supplied by the company Life Technologies), • 100% v/v of MEM (supplied by the company Merck Eurolab), and • 0.5% w/v of albumin of bovine origin (supplied by the company Sigma). Evaluation of Lipid Synthesis
The adipocytes in suspension are incubated for 1 hour at 37° C. in the presence of various concentrations of OX100. The OX100 concentrations tested are 20 μM, 4 μM and 0.8 μM.
A volume of 10 ml of radiolabelled acetate (2-C^14, 60.87 μCi/ml, supplied by the company Amersham) is subsequently added to the preparation.
After incubation for 4 hours, the lipids are extracted according to the procedure described by Bligh and Dyer, Can J Biochem Physiol, 37, 922, (1959), (methanol/chloroform/water), and evaporated under nitrogen, and the radioactivity incorporated is quantified by liquid scintillation (liquid scintillation device reference LKB 1210, supplied by the company Rackbeta).
The possible interaction between the radiolabelled acetate and the OX100 was evaluated in order to confirm the specificity of labeling, by incubating the highest concentration of OX100 (20 μM) with acetate alone.

[2] = system: normal human adipocytes; assay: Evaluation of lipid synthesis in adipocytes in suspension (Example 7): incorporation of radiolabelled acetate into lipids; type: cell-based; conditions: for decrease of the incorporation of acetate into lipids, % of the control: FIG. 2
Procedure: A solution of OX100 (10^−2 M in DMSO) was tested.
Culture Conditions: They are identical to those of example 6.
The adipocytes in suspension are incubated for 1 h at 37° C. in the presence of various concentrations of OX100 (10, 20 and 100 μMO). A volume of 10 ml of radiolabelled acetate (2-C^14, 60.87 μCi/ml, Amersham) is subsequently added to the preparation. After incubation for 4 h, the lipids are extracted according to the procedure described by Bligh and Dyer (methanol/chloroform/water), and evaporated under nitrogen, and the radioactivity incorporated is quantified by liquid scintillation (Rackbeta LKB 1210).

[3] = tested at 10 μM, 1 h preincubation, 4 h with 2-C14 acetate

CCCCCCCCCCCC1=NC(C)(C)CO1 [OX100, 2-undecyl-4,4-dimethyl-1,3-oxazoline]
inhibition of lipogenesis in human adipocytes (in words) [1]: capable of inhibiting lipogenesis
decrease of the incorporation of acetate, % of the control ([1]; OX100 at 4 μM, 4 h with 2-C14 acetate): 25%
decrease of the incorporation of acetate, % of the control ([1]; OX100 at 20 μM, 4 h with 2-C14 acetate): 31%
decrease of the incorporation of acetate into lipids, % of the control ([2]; OX100 at 10 μM): 35%
decrease of the incorporation of acetate into lipids, % of the control ([2]; OX100 at 20 μM): 38%
decrease of the incorporation of acetate into lipids, % of the control ([2]; OX100 at 100 μM): 39%
inhibitory activity on lipid synthesis (in words) ([2]; human adipocytes in culture): significant inhibitory activity

C/C=C/C/C=C/CCC(=O)[C@H]1O[C@H]1C(N)=O [ceruline, reference compound]
inhibition of the incorporation of acetate (inhibition/control) [1, 3]: 95%
inhibition of the incorporation of acetate (inhibition/control) [2, 3]: 75%
